Data taken from patent publication US9493486B2, “Diazaspirocycloalkane and azaspirocycloalkane” (Hoffmann-La Roche Inc., priority 2012, dated 2016).

Target: ATX (human His-tagged) (Homo sapiens (Human), UniProt Q13822)
Assay: Human ATX enzyme inhibition assay (fluorescence quenching, MR121 substrate)
Type: biochemical
Conditions: 30 nM ATX, 1 μM MR121 substrate, 30° C.
From the text: Human ATX Enzyme Inhibition Assay
Assay working solutions were made as follows:

SMILES	IC50
CC(C)c1cc(C#N)ccc1OCC(=O)N1CCC2(CC1)CN(C(=O)C1CCc3[nH]nnc3C1)C2 (stereo not shown) [Example 1.25, 3-isopropyl-4-(2-oxo-2-(2-(4,5,6,7-tetrahydro-1H-benzo[d][1,2,3]triazole-5-carbonyl)-2,7-diazaspiro[3.5]nonan-7-yl)ethoxy)benzonitrile]	74 nM
O=C(C#Cc1ccc(Cl)cc1)N1CCC2(CC1)CN(C(=O)c1ccc3[nH]nnc3c1)C2 [Example 6.9, 1-(2-(1H-benzo[d][1,2,3]triazole-5-carbonyl)-2,7-diazaspiro[3.5]nonan-7-yl)-3-(4-chlorophenyl)prop-2-yn-1-one]	128 nM
O=C(OCc1ccc(OCC(F)(F)F)cc1)N1CCC2(CC1)CN(C(=O)C1CCc3nn[nH]c3C1)C2 (stereo not shown) [Example 12.39, 4-(2,2,2-trifluoroethoxy)benzyl 2-(4,5,6,7-tetrahydro-1H-benzo[d][1,2,3]triazole-6-carbonyl)-2,7-diazaspiro[3.5]nonane-7-carboxylate]	5 nM
O=C(OCc1ccc(C(F)(F)F)cc1F)N1CCC2(CC1)CN(C(=O)C1CCc3[nH]nnc3C1)C2 (stereo not shown) [Example 12.36, [2-fluoro-4-(trifluoromethyl)phenyl]methyl 2-(4,5,6,7-tetrahydro-1H-benzotriazole-5-carbonyl)-2,7-diazaspiro[3.5]nonane-7-carboxylate]	1 nM
O=C(OCc1cc(Cl)cc(Cl)c1)N1CC2(CCN(C(=O)c3ccc4[nH]c(=O)oc4c3)CC2)C1 [Example 2.2, 7-(2-oxo-2,3-dihydro-benzooxazole-6-carbonyl)-2,7-diaza-spiro[3.5]nonane-2-carboxylic acid 3,5-dichloro-benzyl ester]	13.7 nM
CS(=O)(=O)c1cc(COC(=O)N2CCC3(CC2)CN(C(=O)c2ccc4[nH]nnc4c2)C3)ccc1Cl [Example 12.06, 4-chloro-3-(methylsulfonyl)benzyl 2-(1H-benzo[d][1,2,3]triazole-5-carbonyl)-2,7-diazaspiro[3.5]nonane-7-carboxylate]	7240 nM
O=C(OCc1cnc(Cl)c(Cl)c1)N1CCC2(CC1)CN(C(=O)c1ccc3[nH]nnc3c1)C2 [Example 12.03, (5,6-dichloropyridin-3-yl)methyl 2-(1H-benzo[d][1,2,3]triazole-5-carbonyl)-2,7-diazaspiro[3.5]nonane-7-carboxylate]	622 nM
O=C(c1cc(Cl)cc(Cl)c1)N1CCC2(CC1)CN(C(=O)c1ccc3[nH]nnc3c1)C2 [Example 6.3, (2-(1H-benzo[d][1,2,3]triazole-5-carbonyl)-2,7-diazaspiro[3.5]nonan-7-yl)(3,5-dichlorophenyl)methanone]	2660 nM
Nc1ccc(C(=O)N2CC3(CCN(C(=O)CCc4cc(Cl)cc(Cl)c4)CC3)C2)cc1O [Example 1.05, 1-(2-(4-amino-3-hydroxybenzoyl)-2,7-diazaspiro[3.5]nonan-7-yl)-3-(3,5-dichlorophenyl)propan-1-one]	1040 nM
O=C(COc1cc(Cl)cc(Cl)c1)N1CCC2(CC1)CN(C(=O)c1ccc3[nH]nnc3c1)C2 [Example 6.2, 1-(2-(1H-benzo[d][1,2,3]triazole-5-carbonyl)-2,7-diazaspiro[3.5]nonan-7-yl)-2-(3,5-dichlorophenoxy)ethanone]	298 nM
O=C(OCc1ccc(OC(F)(F)F)cc1)N1CCC2(CC1)CN(C(=O)N1CCc3[nH]nnc3C1)C2 [Example 13, 4-(Trifluoromethoxy)benzyl 2-(4,5,6,7-tetrahydro-1H-[1,2,3]triazolo[4,5-c]pyridine-5-carbonyl)-2,7-diazaspiro[3.5]nonane-7-carboxylate]	3 nM
O=C(NC1CC2(C1)CN(C(=O)c1ccc3[nH]nnc3c1)C2)OCc1ccccc1 [Example 1.10, [2-(1H-benzotriazole-5-carbonyl)-2-aza-spiro[3.3]hept-6-yl]-carbamic acid benzyl ester]	3700 nM
O=C(NC1CC2(C1)CN(C(=O)CCc1cc(Cl)cc(Cl)c1)C2)c1ccc2[nH]nnc2c1 [Example 1.11, N-(2-(3-(3,5-dichlorophenyl)propanoyl)-2-azaspiro[3.3]heptan-6-yl)-1H-benzo[d][1,2,3]triazole-5-carboxamide]	155 nM
